# Measurements published in patent publication US9499493B2, “2,4-pyrimidinediamine compounds and their uses” (Rigel Pharmaceuticals, Inc., priority 2002, dated 2016).
# What was measured:
# [1] = tested on: cultured human mast cells (CHMC); assay: CHMC high cell density IgE activation: LTC4; assay type: cell-based; conditions: anti-IgE activation
# Method: (§1) Inhibition of degranulation was measured at both low and high cell density by quantifying the release of the granule specific factors tryptase, histamine and hexosaminidase. Inhibition of release and/or synthesis of lipid mediators was assessed by measuring the release of leukotriene LTC4 and inhibition of release and/or synthesis of cytokines was monitored by quantifying TNF-α, IL-6 and IL-13. Tryptase and hexosaminidase were quantified using fluorogenic substrates as described in their respective examples. […] The protocols of the various assays are provided below.
# (§2) After sensitizing, cells are counted, pelleted (1000 rpm, 5-10 minutes), and resuspended at 1-2×10^6 cells/ml in MT buffer. Add 100 ul of cell suspension to each well and 100 ul of compound dilutions. The final vehicle concentration is 0.5% DMSO. Incubate at 37° C. (5% CO2) for 1 hour. After 1 hour of compound treatment, stimulate cells with 6× anti-IgE. Mix wells with the cells and allow plates to incubate at 37° C. (5% CO2) for one hour. After 1 hour incubation, pellet cells (10 minutes, 1000 RPM) and collect 200 ul per well of the supernatant, being careful not to disturb pellet. Place the supernatant plate on ice. During the 7-hour step (see next) perform tryptase assay on supernatant that had been diluted 1:500. Resuspend cell pellet in 240 ul of CM media containing 0.5% DMSO and corresponding concentration of compound. Incubate CHMC cells for 7 hours at 37° C. (5% CO2). After incubation, pellet cells (1000 RPM, 10 minutes) and collect 225 ul per well and place in −80° C. until ready to perform ELISAS. ELISAS are performed on appropriately diluted samples (determined empirically for each donor cell population so that the sample measurement falls within the standard curve) following the supplier's instructions.
# basophil cells [2] = assay: Basophil IgE activation: histamine release assay; assay type: cell-based, human; conditions: Basophils, anti-IgE
# Method: (§3) The basophil activation assay was carried out using whole human peripheral blood from donors allergic to dust mites with the majority of the red blood cells removed by dextran sedimentation. Human peripheral blood was mixed 1:1 with 3% dextran T500 and RBCs were allowed to settle for 20-25 min. The upper fraction was diluted with 3 volumes of D-PBS and cells were spun down for 10 min at 1500 rpm, RT. Supernatant was aspirated and cells were washed in an equal volume MT-buffer. Finally, cells were resuspended in MT-buffer containing 0.5% DMSO in the original blood volume. 80 uL cells were mixed with 20 uL compound in the presence of 0.5% DMSO, in triplicate, in a V-bottom 96-well tissue culture plate. A dose range of 8 compound concentrations was tested resulting in a 10-point dose response curve including maximum (stimulated) and minimum (unstimulated) response. […] The cells were stimulated for 30 minutes at 37° C., 5% CO2. The plate was spun for 10 min at 1500 rpm at room temperature and 80 uL the supernatant was harvested for histamine content analysis using the histamine ELISA kit supplied by Immunotech. The ELISA was performed according to supplier's instructions.
# [3] = tested on: cultured human mast cells (CHMC); assay: CHMC high cell density IgE activation: IL-13; assay type: cell-based; conditions: anti-IgE activation
# Method: as §1, §2
# basophil cells [4] = assay: Basophil dustmite activation: histamine release assay; assay type: cell-based; conditions: human basophils, house dustmite stimulus; second part of TABLE 1
# Method: as §3
# B-cell line BJAB = assay: BJAB toxicity, Cell Titer Glo assay; assay type: cell-based; conditions: 18 hours incubation
# Method: (§4) Seed 50 μl cells (1×10^6/ml) into each well containing 50 μl compound. The final vehicle concentration is 0.5% DMSO, 1.5% MeOH. Shake plates for 1 minute to mix cells and compound. Incubate plates at 37° C. (5% CO2) for 18 hours. Next day, harvest 50 μl cells from each well, add to 50 μl Cell Titer Glo reagent ([…]). Shake plates for 1 minute. Read on luminometer.
# basophil cells [5] = assay: Basophil ionomycin activation: histamine release assay; assay type: cell-based, human; conditions: Basophils
# Method: as §3
# Assays for ionomycin-induced basophil cell degranulation were carried out as described for the Basophil IgE or Dustmite Activation Assay (Section 6.4.6, supra), with the exception that following incubation with compound, cells were stimulated with 20 μl of 2 μM ionomycin.
# Jurkat cells = assay: Jurkat toxicity, Cell Titer Glo assay; assay type: cell-based; conditions: 18 hours incubation
# Method: as §4, with “The final vehicle concentration is 0.5% DMSO, 1.5% MeOH.” left out, “(5% CO2) for 18 hours.” left out
# [6] = tested on: cultured human mast cells (CHMC); assay: CHMC low cell density ionomycin activation: tryptase assay; assay type: cell-based
# [7] = tested on: bone marrow derived mast cells (BMMC); assay: BMMC high cell density IgE activation: LTC4; assay type: cell-based, mouse; conditions: anti-IgE, second part of TABLE 1
# Summary of the method: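 IgE-sensitized BMMC (1-3×10^6 cells/ml, MT buffer) were pretreated with compound for 1 h at 37 °C in 0.5% DMSO, then stimulated with DNP-BSA (6× stimulus, 60 ng/ml) for 1 h. Supernatant was taken, and cells were re-incubated 4–5 h in WEI-conditioned medium with compound. Mediators were quantified by ELISA.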
Structure (SMILES),IC50 [1],IC50 (basophil cells [2]),IC50 [3],IC50 (basophil cells [4]),IC50 (B-cell line BJAB),IC50 (basophil cells [5]),IC50 (Jurkat cells),IC50 [6],IC50 [7]
"CNC(=O)COc1cccc(Nc2ncc(F)c(Nc3ccc4c(c3)NCCO4)n2)c1 [R921219, N4-(1,4-Benzoxazin-6-yl)-5-fluoro-N2-[3-(N-methylamino)carbonylmethyleneoxyphenyl]-2,4-pyrimidinediamine]",34 nM,25 nM,175 nM,20 nM,> 10000 nM,> 10000 nM,> 10000 nM,> 10000 nM,40 nM
"CNC(=O)COc1cccc(Nc2ncc(F)c(Nc3cccc(O)c3)n2)c1 [R926508, 5-Fluoro-N4-(3-hydroxyphenyl)-N2-[3-(N-methylamino)carbonylmethyleneoxyphenyl]-2,4-pyrimidinediamine]",505 nM,65 nM,763 nM,54 nM,> 10000 nM,> 10000 nM,> 10000 nM,> 10000 nM,162 nM
